Experiments:
human factor XIa = human factor XIa (Homo sapiens (Human), UniProt P03951); assay: Measurement of FXIa inhibition (fluorogenic peptide substrate Boc-Glu(OBzl)-Ala-Arg-AMC); type: biochemical; settings: Table A, 30 min at 22° C., fluorescence
Experimental: (§1) The factor XIa inhibition of the substances according to the invention is determined using a biochemical test system which utilizes the reaction of a peptidic factor XIa substrate to determine the enzymatic activity of human factor XIa. Here, factor XIa cleaves from the peptic factor XIa substrate the C-terminal aminomethylcoumarin (AMC), the fluorescence of which is measured. The determinations are carried out in microtitre plates.
1 μl of the diluted substance solutions is placed into each of the wells of white microtitre plates from Greiner (384 wells). […] After […] of incubation, the enzyme reaction is started by addition of 20 μl of the factor XIa substrate Boc-Glu(OBzl)-Ala-Arg-AMC dissolved in assay buffer (10 μM in assay buffer) from Bachem, the mixture is incubated at room temperature (22° C.) for 30 min and fluorescence is then measured (excitation: 360 nm, emission: 460 nm). The measured emissions of the test batches with test substance are compared to those of control batches without test substance (only dimethyl sulphoxide instead of test substance in dimethyl sulphoxide), and IC50 values are calculated from the concentration/activity relationships.

human plasma kallikrein = human plasma kallikrein (Homo sapiens (Human), UniProt P03952); assay: Determination of the plasma kallikrein activity (fluorogenic peptide substrate H-Pro-Phe-Arg-AMC); type: biochemical; settings: Table B; plasma kallikrein inhibition, 30 min at 22° C., fluorescence
Sequence of human plasma kallikrein (P03952 391-638): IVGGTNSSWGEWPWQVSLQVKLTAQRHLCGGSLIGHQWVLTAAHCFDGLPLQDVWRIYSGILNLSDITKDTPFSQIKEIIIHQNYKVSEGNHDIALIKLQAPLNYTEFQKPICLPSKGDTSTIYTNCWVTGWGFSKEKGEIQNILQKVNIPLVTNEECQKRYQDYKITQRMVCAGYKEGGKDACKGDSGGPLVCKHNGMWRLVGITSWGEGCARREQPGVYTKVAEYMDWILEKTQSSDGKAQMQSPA
Sequence of human plasma kallikrein (P03952 20-390 partner): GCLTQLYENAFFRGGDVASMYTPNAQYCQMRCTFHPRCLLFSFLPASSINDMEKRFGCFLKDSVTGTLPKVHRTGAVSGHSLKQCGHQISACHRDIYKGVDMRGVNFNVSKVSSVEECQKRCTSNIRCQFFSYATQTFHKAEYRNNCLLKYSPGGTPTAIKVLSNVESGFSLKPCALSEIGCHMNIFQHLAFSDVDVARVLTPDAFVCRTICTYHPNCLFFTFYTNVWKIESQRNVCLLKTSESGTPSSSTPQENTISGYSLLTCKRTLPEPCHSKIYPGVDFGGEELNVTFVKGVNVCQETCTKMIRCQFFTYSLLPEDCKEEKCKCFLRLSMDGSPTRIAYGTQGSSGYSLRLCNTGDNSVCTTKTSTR
Experimental: as §1, with “To determine the plasma kallikrein” for “The factor XIa”, “invention,” for “invention is determined using”, “system is used” for “system”, “plasma kallikrein” for “factor XIa”, “plasma kallikrein.” for “factor XIa.”
1 μl of the diluted substance solutions is placed into each of the wells of white microtitre plates from Greiner (384 wells). 20 μl of assay buffer (50 mM Tris/HCl pH 7.4; 100 mM sodium chloride solution; 5 mM of calcium chloride solution; 0.1% of bovine serum albumin) and 20 μl of plasma kallikrein from Kordia (0.6 nM in assay buffer) are then added successively. After 15 min of incubation, the enzyme reaction is started by addition of 20 μl of the substrate H-Pro-Phe-Arg-AMC dissolved in assay buffer (10 μM in assay buffer) from Bachem, the mixture is incubated at room temperature (22° C.) for 30 min and fluorescence is then measured (excitation: 360 nm, emission: 460 nm). The measured emissions of the test batches with test substance are compared to those of control batches without test substance (only dimethyl sulphoxide instead of test substance in dimethyl sulphoxide), and IC50 values are calculated from the concentration/activity relationships.

Sequence of human factor XIa (P03951 388-625): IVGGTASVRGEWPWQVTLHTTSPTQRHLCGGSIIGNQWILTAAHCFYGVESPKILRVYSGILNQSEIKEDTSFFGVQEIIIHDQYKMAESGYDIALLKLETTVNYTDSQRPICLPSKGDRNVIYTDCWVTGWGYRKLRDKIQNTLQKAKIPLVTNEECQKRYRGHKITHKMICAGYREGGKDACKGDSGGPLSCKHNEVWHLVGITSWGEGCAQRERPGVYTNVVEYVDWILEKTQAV
Sequence of human factor XIa (P03951 19-387 partner): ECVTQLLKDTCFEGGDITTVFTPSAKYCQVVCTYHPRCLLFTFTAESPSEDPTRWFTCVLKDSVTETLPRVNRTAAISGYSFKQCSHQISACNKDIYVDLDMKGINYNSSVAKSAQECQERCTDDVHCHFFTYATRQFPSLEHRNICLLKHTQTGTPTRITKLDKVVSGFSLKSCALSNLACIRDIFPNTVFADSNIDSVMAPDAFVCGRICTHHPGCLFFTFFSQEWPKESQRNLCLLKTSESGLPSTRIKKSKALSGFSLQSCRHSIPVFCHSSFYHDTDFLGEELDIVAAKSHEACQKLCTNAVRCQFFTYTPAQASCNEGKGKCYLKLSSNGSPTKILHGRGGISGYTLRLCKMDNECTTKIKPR

| SMILES | IC50 (human factor XIa) | IC50 (human plasma kallikrein) |
| --- | --- | --- |
| CNC(=O)c1ccc(NC(=O)C(Cc2ccn(C)n2)n2cc(OC)c(-c3cc(F)ccc3C#N)cc2=O)cn1 (racemic) [Example 49, 5-({2-[4-(2-Cyano-5-fluorophenyl)-5-methoxy-2-oxopyridin-1(2H)-yl]-3-(1-methyl-1H-pyrazol-3-yl)propanoyl}amino)-N-methylpyridine-2-carboxamide (racemate)] | 160 nM | 130 nM |
| CNC(=O)c1ccc(NC(=O)C(Cc2ccn(C)n2)n2cc(C3CC3)c(-c3cc(Cl)ccc3C#N)cc2=O)cn1 (racemic) [Example 51, 5-({2-[4-(5-Chloro-2-cyanophenyl)-5-cyclopropyl-2-oxopyridin-1(2H)-yl]-3-(1-methyl-1H-pyrazol-3-yl)propanoyl}amino)-N-methylpyridine-2-carboxamide (racemate)] | 200 nM | 80 nM |
| CCC(C(=O)Nc1ccc(C(N)=O)nc1)n1cc(OC)c(-c2cc(Cl)ccc2C#N)cc1=O (centres unmarked) [Example 1] | 20 nM | 22 nM |
| CCC(C(=O)Nc1ccc(C(=O)NC)nc1)n1cc(OC)c(-c2cc(Cl)ccc2C#N)cc1=O (centres unmarked) [Example 2] | 20 nM | 16 nM |
| COCCC(C(=O)Nc1ccc(C(N)=O)nc1)n1cc(Cl)c(-c2cc(Cl)ccc2C#N)cc1=O (centres unmarked) [Example 3] | 29 nM | 100 nM |
| N#Cc1ccc(Cl)cc1-c1cc(=O)n(C(C[C@@H]2CCCCO2)C(=O)Nc2ccc(C(N)=O)nc2)cc1Cl (some centres unmarked) [Example 4] | 16 nM | 140 nM |
| CNC(=O)c1ccc(NC(=O)C(C[C@@H]2CCCCO2)n2cc(Cl)c(-c3cc(Cl)ccc3C#N)cc2=O)cn1 (some centres unmarked) [Example 5] | 12 nM | 120 nM |
| N#Cc1ccc(Cl)cc1-c1cc(=O)n(C(Cc2ccccn2)C(=O)Nc2ccc(C(N)=O)nc2)cc1OC(F)F (centres unmarked) [Example 7] | 160 nM | 490 nM |
| COc1cn(C(Cc2cccnc2)C(=O)Nc2ccc(C(N)=O)nc2)c(=O)cc1-c1cc(Cl)ccc1C#N (centres unmarked) [Example 8] | 11 nM | 6 nM |
| N#Cc1ccc(Cl)cc1-c1cc(=O)n(C(Cc2cocn2)C(=O)Nc2ccc(C(N)=O)nc2)cc1Cl (centres unmarked) [Example 10] | 210 nM | 470 nM |
| COc1cn(C(Cc2cocn2)C(=O)Nc2ccc(C(N)=O)nc2)c(=O)cc1-c1cc(Cl)ccc1C#N (centres unmarked) [Example 11] | 48 nM | 52 nM |
| N#Cc1ccc(Cl)cc1-c1cc(=O)n(C(Cc2cnco2)C(=O)Nc2ccc(C(N)=O)nc2)cc1OC(F)F (centres unmarked) [Example 12] | 210 nM | 640 nM |
| COc1cn(C(Cc2ccccn2)C(=O)Nc2ccc(C(N)=O)nc2)c(=O)cc1-c1cc(Cl)ccc1F (centres unmarked) [Example 13] | 220 nM | 250 nM |
| COc1cn(C(Cc2cc(C)no2)C(=O)Nc2ccc(C(N)=O)nc2)c(=O)cc1-c1cc(Cl)ccc1F (centres unmarked) [Example 14] | 390 nM | 160 nM |
| CNC(=O)c1ccc(NC(=O)C(CCOC)n2cc(Cl)c(-c3cc(Cl)ccc3C#N)cc2=O)cn1 (centres unmarked) [Example 15] | 23 nM | 53 nM |
| N#Cc1ccc(Cl)cc1-c1cc(=O)n(C(Cc2cnco2)C(=O)Nc2ccc(C(N)=O)nc2)cc1Cl (centres unmarked) [Example 16] | 32 nM | 89 nM |
